One series concerns the target T1, human PDE10A full length (Homo sapiens, UniProt Q9Y233).
T1 construct: purchased Enzo Life Science, Lausen, Switzerland SE-534
In words: PDE10A Scintillation Proximity Assay (SPA), human PDE10A full length assay. The following applies: 50 nM cGMP + 50 nM [3H]-cGMP, 20 minutes at room temperature, read-out: PDE10A inhibition IC50. It counts as biochemical. Put shortly: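 IC50 values come from radioactive counts across a range of inhibitor concentrations, using YSi-SPA beads in zinc sulphate as stop reagent. Full-length enzyme hydrolysed 50 nM cGMP with 50 nM [3H]-cGMP for 20 min at room temperature in pH 7.5 HEPES buffer containing 10 mM MgCl2 and 0.05 mg/ml BSA.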
On the technique in general: In a scintillation proximity assay essentially only radioactivity close to the scintillant gives light.

A value given as a limit tells only on which side of the number the result lay.

Usually IC50 stands for the concentration that gives 50% inhibition. One may read the melting point as the temperature, or range, at which the solid turns liquid.

T1 sequence (Q9Y233 1-779 isoform Q9Y233-1): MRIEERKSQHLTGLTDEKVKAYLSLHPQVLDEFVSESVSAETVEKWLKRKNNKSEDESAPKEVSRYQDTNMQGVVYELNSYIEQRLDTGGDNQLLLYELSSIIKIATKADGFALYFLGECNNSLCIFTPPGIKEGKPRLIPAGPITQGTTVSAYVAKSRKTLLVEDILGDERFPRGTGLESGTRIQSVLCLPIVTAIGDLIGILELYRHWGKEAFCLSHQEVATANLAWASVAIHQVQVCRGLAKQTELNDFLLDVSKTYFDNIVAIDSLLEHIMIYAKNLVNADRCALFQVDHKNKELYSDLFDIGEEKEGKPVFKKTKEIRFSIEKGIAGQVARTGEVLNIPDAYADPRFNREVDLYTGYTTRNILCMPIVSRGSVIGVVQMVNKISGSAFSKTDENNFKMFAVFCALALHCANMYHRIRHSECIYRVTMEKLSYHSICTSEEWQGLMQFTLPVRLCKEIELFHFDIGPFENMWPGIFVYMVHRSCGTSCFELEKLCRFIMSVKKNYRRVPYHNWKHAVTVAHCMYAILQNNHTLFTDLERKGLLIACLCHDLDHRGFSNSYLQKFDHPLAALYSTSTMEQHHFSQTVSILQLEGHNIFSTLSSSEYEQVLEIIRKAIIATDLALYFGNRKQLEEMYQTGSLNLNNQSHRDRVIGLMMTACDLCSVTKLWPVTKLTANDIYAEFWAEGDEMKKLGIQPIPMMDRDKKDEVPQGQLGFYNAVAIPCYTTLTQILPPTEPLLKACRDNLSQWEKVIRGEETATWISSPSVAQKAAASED

For the compound `CN(CCF)c1nc2cc(NC(=O)c3c(C(=O)N4CC(F)C4)cnn3C)ccn2n1` [Example 114, 4-(3-Fluoro-azetidine-1-carbonyl)-2-methyl-2H-pyrazole-3-carboxylic acid {2-[(2-fluoro-ethyl)-methyl-amino]-[1,2,4]triazolo[1,5-a]pyridin-7-yl}-amide], the melting point fell in the range of 233 to 236 °C. The IC50 on human PDE10A full length was 5.66 nM.
For `Cn1ncc(C(=O)N2CCOCC2)c1C(=O)Nc1ccn2nc(-c3ccnc(F)c3)nc2c1` [Example 117, N-(2-(2-fluoropyridin-4-yl)-[1,2,4]triazolo[1,5-a]pyridin-7-yl)-1-methyl-4-(morpholine-4-carbonyl)-1H-pyrazole-5-carboxamide], in that order: > 280 °C and 15 nM.
In the same order, the values of `Cn1ncc(C(=O)N2CCC2)c1C(=O)Nc1ccn2nc(-c3ccnc(F)c3)nc2c1` [Example 118, 4-(Azetidine-1-carbonyl)-2-methyl-2H-pyrazole-3-carboxylic acid [2-(2-fluoro-pyridin-4-yl)-[1,2,4]triazolo[1,5-a]pyridin-7-yl]-amide] are > 280 °C and 6.78 nM.
For `Cn1ncc(C(=O)N2CCC2)c1C(=O)Nc1ccn2nc(-c3cccc(F)n3)nc2c1` [Example 119, 4-(Azetidine-1-carbonyl)-2-methyl-2H-pyrazole-3-carboxylic acid [2-(6-fluoro-pyridin-2-yl)-[1,2,4]triazolo[1,5-a]pyridin-7-yl]-amide], in that order: 263.9 °C and 1.2 nM.
Turning to `CN(C)C(=O)c1cnn(C)c1C(=O)Nc1ccn2nc(-c3cccc(F)n3)nc2c1` [Example 120, 2-Methyl-2H-pyrazole-3,4-dicarboxylic acid 4-dimethylamide 3-{[2-(6-fluoro-pyridin-2-yl)-[1,2,4]triazolo[1,5-a]pyridin-7-yl]-amide}], the melting point stood at 264.4 °C. The IC50 on human PDE10A full length turned out to be 1.32 nM.
In the same order, the values of `CN(C(=O)c1cnn(C)c1C(=O)Nc1ccn2nc(N3CCCC3)nc2c1)C1CC1` [Example 123, 2-Methyl-2H-pyrazole-3,4-dicarboxylic acid 4-(cyclopropyl-methyl-amide)3-[(2-pyrrolidin-1-yl-[1,2,4]triazolo[1,5-a]pyridin-7-yl)-amide]] are 274.3 °C and 0.6 nM.
`CCN(C)C(=O)c1cnn(C)c1C(=O)Nc1ccn2nc(N3CCCC3)nc2c1` [Example 124, 2-Methyl-2H-pyrazole-3,4-dicarboxylic acid 4-(ethyl-methyl-amide)3-[(2-pyrrolidin-1-yl-[1,2,4]triazolo[1,5-a]pyridin-7-yl)-amide]] gave a melting point of 323.1 °C. At human PDE10A full length, the IC50 came to 0.86 nM.

Source of the values: patent US8349824B2, “Triazolopyridine compounds” (Hoffmann-La Roche Inc., priority 2010, dated 2013).
